Data from patent US10442808B2, “Pyrazolo pyrimidine derivatives and their use as MALT1 inhbitors” (NOVARTIS AG, priority 2014, dated 2019).

Tested on: IL2 promoter
Test: Human IL2 promoter reporter gene assay (RGA) in Jurkat cells
Format: cell-based
Details: […], heading: IL2 reporter gene assay IC50, anti-CD28 mAb + PMA stimulation 5.5 h
Method: Human IL2 Promoter Reporter Gene Assay (RGA) in Jurkat Cells
The transfected Jurkat clone K22 290_H23 was propagated in RPMI 1640 supplemented with 10% heat inactivated fetal calf serum, 50 μM 2-mercaptoethanol and 1 mg/ml Geneticin. The cell concentration should not exceed 1×10e6/ml during culturing. The cells should not exceed passage 30. Prior to the assay the cells were washed and prepared to the concentration of 2×10e6 cells/ml.
Compound dilutions were made as 2×-concentrated solutions then diluted ½ by addition to cells. Two hundred and fifty μl of compound dilution and 250 μl of cells were mixed together in wells of a 96-deep well plate. Cells/compounds premix were incubated 30 min at 37° C. and 5% CO2 directly in the deep well plate.
After pre-incubation of cells with compounds, cells were stimulated with anti-CD28 mAb (clone 15E8) at 3 μg/ml+PMA at 1 μg/ml. Both co-stimulants were diluted in culture medium at a 10×-concentrated solution. 10 μl of co-stimulants were pipetted into the white 96-well plates and 100 μl of cell/compound mix was immediately added in duplicates. The cells were stimulated for 5.5 h at 37° C. and 5% CO2.
After cell stimulation, 50 μl of BriteLitePlus reagent (Perkin Elmer) was added to each well and the bioluminescence was measured with a Wallac EnVision reader (Perkin Elmer).

Row | SMILES | IC50 [nM]
1 | COCC(C)(OC)c1c(NC(=O)Nc2cnc(-n3nccn3)c(Cl)c2)cnc2cc(Cl)nn12 (centres unmarked) [Example 81, 1-(5-chloro-6-(2H-1,2,3-triazol-2-yl)pyridin-3-yl)-3-(2-chloro-7-(1,2-dimethoxypropan-2-yl)pyrazolo[1,5-a]pyrimidin-6-yl)urea] | 157
2 | COc1ncc(NC(=O)Nc2cnc3cc(Cl)nn3c2C(C)C)cc1Cl [Example 18, 1-(5-chloro-6-methoxypyridin-3-yl)-3-(2-chloro-7-isopropylpyrazolo[1,5-a]pyrimidin-6-yl)urea] | 245
3 | COCC1(c2c(NC(=O)Nc3cnc(-n4nccn4)c(Cl)c3)cnc3cc(C)nn23)CC1 [Example 78, 1-(5-chloro-6-(2H-1,2,3-triazol-2-yl)pyridin-3-yl)-3-(7-(1-(methoxymethyl)cyclopropyl)-2-methylpyrazolo[1,5-a]pyrimidin-6-yl)urea] | 927
4 | O=C(Nc1cnc(-n2nccn2)c(C(F)(F)F)c1)Nc1cnc2cc(Cl)nn2c1-c1ccco1 [Example 63, 1-(6-(2H-1,2,3-triazol-2-yl)-5-(trifluoromethyl)pyridin-3-yl)-3-(2-chloro-7-(furan-2-yl)pyrazolo[1,5-a]pyrimidin-6-yl)urea] | 91
5 | COCCO[C@@H](C)c1c(NC(=O)Nc2ccnc(C(F)(F)F)c2)cnc2cc(Cl)nn12 [Example 41, (S)-1-(2-chloro-7-(1-(2-methoxyethoxy)ethyl)pyrazolo[1,5-a]pyrimidin-6-yl)-3-(2-(trifluoromethyl)pyridin-4-yl)urea] | 82
6 | CO[C@H](C)c1c(NC(=O)Nc2ccnc(C(F)(F)F)c2)cnc2cc(Cl)nn12 [Example 47, (R)-1-(2-chloro-7-(1-methoxyethyl)pyrazolo [1,5-a]pyrimidin-6-yl)-3-(2-(trifluoromethyl)pyridin-4-yl)urea] | 94
7 | Cc1c(NC(=O)Nc2cnc(-n3nccn3)c(Cl)c2)cnc2cc(Cl)nn12 [Example 62, 1-(5-chloro-6-(2H-1,2,3-triazol-2-yl)pyridin-3-yl)-3-(2-chloro-7-methylpyrazolo[1,5-a]pyrimidin-6-yl)urea] | 140
8 | COC(=O)c1cc(Cl)cc(NC(=O)Nc2cnc3cc(Cl)nn3c2[C@H](C)OC)c1 [Example 13, (S)-methyl 3-chloro-5-(3-(2-chloro-7-(1-methoxyethyl)pyrazolo [1,5-a]pyrimidin-6-yl)ureido)benzoate] | 67
9 | CN(C)C1(c2c(NC(=O)Nc3cnc(-n4nccn4)c(Cl)c3)cnc3cc(Cl)nn23)CC1 [Example 88, 1-(5-chloro-6-(2H-1,2,3-triazol-2-yl)pyridin-3-yl)-3-(2-chloro-7-(1-(dimethylamino)cyclopropyl)pyrazolo[1,5-a]pyrimidin-6-yl)urea] | 84
10 | CO[C@H](c1c(NC(=O)Nc2cnc(-n3nccn3)c(Cl)c2)cnc2cc(Cl)nn12)[C@@H](C)OC [Example 98, 1-(5-chloro-6-(2H-1,2,3-triazol-2-yl)pyridin-3-yl)-3-(2-chloro-7-((1R,2R)-1,2-dimethoxypropyl)pyrazolo[1,5-a]pyrimidin-6-yl)urea] | 115
11 | COC[C@H](C)c1c(NC(=O)Nc2cnc(-n3nccn3)c(C(F)(F)F)c2)cnc2cc(Cl)nn12 [Example 111, (R)-1-(6-(2H-1,2,3-triazol-2-yl)-5-(trifluoromethyl)pyridin-3-yl)-3-(2-chloro-7-(1-methoxypropan-2-yl)pyrazolo[1,5-a]pyrimidin-6-yl)urea] | 138
12 | C[C@@H](OCc1ccccc1)c1c(NC(=O)Nc2cnc(-n3nccn3)c(C(F)(F)F)c2)cnc2cc(Cl)nn12 [Example 65, (R)-1-(6-(2H-1,2,3-triazol-2-yl)-5-(trifluoromethyl)pyridin-3-yl)-3-(7-(1-(benzyloxy)ethyl)-2-chloropyrazolo[1,5-a]pyrimidin-6-yl)urea] | 72
13 | C[C@@H](O)c1c(NC(=O)Nc2cnc(-n3nccn3)c(C(F)(F)F)c2)cnc2cc(Cl)nn12 [Example 113, (R)-1-(6-(2H-1,2,3-triazol-2-yl)-5-(trifluoromethyl)pyridin-3-yl)-3-(2-chloro-7-(1-hydroxyethyl)pyrazolo[1,5a]pyrimidin-6-yl)urea] | 78
14 | CC(C)(C)c1c(NC(=O)Nc2cnc(-n3nccn3)c(Cl)c2)cnc2cc(Cl)nn12 [Example 34, 1-(7-(tert-butyl)-2-chloropyrazolo[1,5-a]pyrimidin-6-yl)-3-(5-chloro-6-(2H-1,2,3-triazol-2-yl)pyridin-3-yl)urea] | 145

Stronger by IC50, values ahead:

Row | IC50 [nM] | SMILES
15 | 60 | CO[C@@H](C)c1c(NC(=O)Nc2cnc(-n3nccn3)c(Cl)c2)cnc2cc(F)nn12 [Example 95, (S)-1-(5-chloro-6-(2H-1,2,3-triazol-2-yl)pyridin-3-yl)-3-(2-fluoro-7-(1-methoxyethyl)pyrazolo [1,5-a]pyrimidin-6-yl)urea]
16 | 59 | CO[C@@H](C)c1c(NC(=O)Nc2cnc(OC(F)F)c(Cl)c2)cnc2cc(Cl)nn12 [Example 93, (S)-1-(5-chloro-6-(difluoromethoxy)pyridin-3-yl)-3-(2-chloro-7-(1-methoxyethyl)pyrazolo[1,5-a]pyrimidin-6-yl)urea]
17 | 52 | CO[C@@H](c1c(NC(=O)Nc2cnc(-n3nccn3)c(Cl)c2)cnc2cc(Cl)nn12)C(C)C [Example 5, (R)-1-(5-chloro-6-(2H-1,2,3-triazol-2-yl)pyridin-3-yl)-3-(2-chloro-7-(1-methoxy-2-methylpropyl)pyrazolo[1,5-a]pyrimidin-6-yl)urea]
18 | 50 | COCC1(c2c(NC(=O)Nc3cnc(-n4nccn4)c(Cl)c3)cnc3cc(Cl)nn23)CCCO1 (centres unmarked) [Example 91, 1-(5-chloro-6-(2H-1,2,3-triazol-2-yl)pyridin-3-yl)-3-(2-chloro-7-(2-(methoxymethyl)tetrahydrofuran-2-yl)pyrazolo[1,5-a]pyrimidin-6-yl)urea]
19 | 47 | COCC1(c2c(NC(=O)Nc3cnc(-n4nccn4)c(Cl)c3)cnc3cc(Cl)nn23)CC1 [Example 76, 1-(5-chloro-6-(2H-1,2,3-triazol-2-yl)pyridin-3-yl)-3-(2-chloro-7-(1-(methoxymethyl)cyclopropyl)pyrazolo[1,5-a]pyrimidin-6-yl)urea]
20 | 46 | CC(C)(c1c(NC(=O)Nc2ccnc(C(F)(F)F)c2)cnc2cc(Cl)nn12)C1CCOCC1 [Example 80, 1-(2-chloro-7-(2-(tetrahydro-2H-pyran-4-yl)propan-2-yl)pyrazolo[1,5-a]pyrimidin-6-yl)-3-(2-(trifluoromethyl)pyridin-4-yl)urea]
21 | 41 | COC[C@@H](C)c1c(NC(=O)Nc2cnc(-n3nccn3)c(C(F)(F)F)c2)cnc2cc(Cl)nn12 [Example 110, (S)-1-(6-(2H-1,2,3-triazol-2-yl)-5-(trifluoromethyl)pyridin-3-yl)-3-(2-chloro-7-(1-methoxypropan-2-yl)pyrazolo[1,5-a]pyrimidin-6-yl)urea]
22 | 39 | CO[C@@H](C)c1c(NC(=O)Nc2ccnc(Cl)c2)cnc2cc(Cl)nn12 [Example 12, (S)-1-(2-chloro-7-(1-methoxyethyl)pyrazolo [1,5-a]pyrimidin-6-yl)-3-(2-chloropyridin-4-yl)urea]
23 | 13 | CN1CCOCC1Cc1c(NC(=O)Nc2cnc(-n3nccn3)c(Cl)c2)cnc2cc(Cl)nn12 (centres unmarked) [Example 83, 1-(5-chloro-6-(2H-1,2,3-triazol-2-yl)pyridin-3-yl)-3-(2-chloro-7-((4-methylmorpholin-3-yl)methyl)pyrazolo[1,5-a]pyrimidin-6-yl)urea]
